Source: paper PMC10658973, “Thiazolopyrimidine derivatives as novel class of small molecule tyrosinase inhibitor” (BMC Chemistry, 2023)
Entries after “also recorded” stand apart in the source; their conditions may differ. Like-named read-outs stand apart in the source and are kept apart here.

Columns and labels:
tyrosinase [1] = conditions: previously reported, cited from earlier work
[2] = biological target: tyrosinase (EC 1.14.18.1) (Agaricus bisporus, UniProt C7FF04); assay: Tyrosinase inhibitory assay (L-Dopa oxidation); format: biochemical; conditions: for IC50: tyrosinase, L-Dopa substrate, mean of three independent experiments
tyrosinase (EC 1.14.18.1), sequence (C7FF04 1-392): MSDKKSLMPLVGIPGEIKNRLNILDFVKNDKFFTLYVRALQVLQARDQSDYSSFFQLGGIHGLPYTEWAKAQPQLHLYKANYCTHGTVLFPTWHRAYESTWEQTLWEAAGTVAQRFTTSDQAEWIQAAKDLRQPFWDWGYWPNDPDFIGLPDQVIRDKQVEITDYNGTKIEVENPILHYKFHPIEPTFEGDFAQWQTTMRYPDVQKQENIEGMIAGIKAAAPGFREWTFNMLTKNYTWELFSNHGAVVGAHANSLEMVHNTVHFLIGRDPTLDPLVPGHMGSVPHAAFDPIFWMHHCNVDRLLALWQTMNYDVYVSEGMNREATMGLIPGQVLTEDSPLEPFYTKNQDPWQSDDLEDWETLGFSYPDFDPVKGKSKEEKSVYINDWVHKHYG

tyrosinase [3] = assay: Enzyme kinetic studies (Lineweaver-Burk, L-Dopa substrate); format: biochemical
Excerpt: The Lineweaver–Burk reciprocal plot was provided by plotting 1/V against 1/[S] at variable concentrations of the L-Dopa.

tyrosinase [4] = assay: UV/VIS spectra of tyrosinase with L-Dopa and inhibitor; format: biochemical; conditions: 475 nm, L-Dopa + tyrosinase, various concentrations of inhibitor
Experimental: UV spectra of compound 6a, tyrosinase and L-Dopa were analyzed separately. […] However, when L-Dopa was added to tyrosinase without an inhibitor, the highest absorbance was observed, confirming the generation of dopachrome.

hTYR = test system: hTYR; parameters: method as in PMID 29427586; conditions: previously reported; cited from earlier work
mTYR = test system: mTYR; parameters: method as in PMID 29427586; conditions: previously reported; cited from earlier work

SMILES | IC50 [2] | melting point | IC50 (tyrosinase [1]) | further results
CCCCC(=O)NC(=S)Nc1ccc(OC)cc1 [B] | – | – | 1.56 µM | IC50 (tyrosinase [1]; listed as compound B): 5.4 µM
Cn1cc[nH]c1=S [C, methimazole] | – | – | 114 µM | –
Nc1nc(-c2ccc(O)cc2O)cs1 [Compound D] | – | – | 51 µM | –
CC(C)C(=O)Nc1nc(-c2ccc(O)cc2O)cs1 [Compound E] | – | – | – | IC50 (hTYR): 1100 nM; IC50 (mTYR): 108 µM
CCOC(=O)C1=C(N)Oc2c(ccc3ccccc23)C1c1ccc(N(C)C)cc1 (centres unmarked) [F] | – | – | 34.1 µM | –
NC(=S)N/N=C/c1cc(COC(=O)c2ccccc2)cs1 [G] | – | – | 0.068 µM | –

Now from value to compound, other results behind:

IC50 [2] | melting point | SMILES | IC50 (tyrosinase [1]) | further results
28.5 µM | 110 to 111 °C | CCOC(=O)C1=C(C)N=C2SC=C(C)N2C1c1ccccc1 (centres unmarked) [Compound 6a, Ethyl 3,7-dimethyl-5-phenyl-5H-thiazolo[3,2-a]pyrimidine-6-carboxylate] | – | type of inhibition (tyrosinase [3]; Lineweaver-Burk plot, L-Dopa substrate): noncompetitive inhibitor; also recorded: noncompetitive mode of inhibition; Km (tyrosinase [3]; inhibitor concentration 5 µM): 690 µM; Vmax (tyrosinase [3]; inhibitor concentration 5 µM): 22.22 mM/min; Km (tyrosinase [3]; inhibitor concentration 10 µM): 680 µM; Vmax (tyrosinase [3]; inhibitor concentration 10 µM): 12.66 mM/min; Km (tyrosinase [3]; inhibitor concentration 25 µM): 650 µM; Vmax (tyrosinase [3]; inhibitor concentration 25 µM): 10.35 mM/min; Km (tyrosinase [3]; inhibitor concentration 50 µM): 690 µM; Vmax (tyrosinase [3]; inhibitor concentration 50 µM): 8.40 mM/min; Km (tyrosinase [3]; inhibitor concentration 100 µM): 660 µM; Vmax (tyrosinase [3]; inhibitor concentration 100 µM): 5.15 mM/min; absorbance intensity (dopachrome formation) (tyrosinase [4]): decreased dose-dependently
40.8 µM | 111 to 112 °C | CCOC(=O)C1=C(C)N=C2SC=C(C)N2C1c1ccccc1F (centres unmarked) [Compound 6b, Ethyl 5-(2-fluorophenyl)-3,7-dimethyl-5H-thiazolo[3,2-a]pyrimidine-6-carboxylate] | – | –
56 µM | 113 to 114 °C | CCOC(=O)C1=C(C)N=C2SC=C(C)N2C1c1cccc(F)c1 (centres unmarked) [Compound 6c, Ethyl 5-(3-fluorophenyl)-3,7-dimethyl-5H-thiazolo[3,2-a]pyrimidine-6-carboxylate] | – | –
34.2 µM | 114 to 115 °C | CCOC(=O)C1=C(C)N=C2SC=C(C)N2C1c1ccccc1Cl (centres unmarked) [Compound 6d, Ethyl 5-(2-chlorophenyl)-3,7-dimethyl-5H-thiazolo[3,2-a]pyrimidine-6-carboxylate] | – | –
37.7 µM | 113 to 114 °C | CCOC(=O)C1=C(C)N=C2SC=C(C)N2C1c1ccc(Cl)cc1 (centres unmarked) [Compound 6e, Ethyl 5-(4-chlorophenyl)-3,7-dimethyl-5H-thiazolo[3,2-a]pyrimidine-6-carboxylate] | – | –
85.3 µM | 112 to 113 °C | CCOC(=O)C1=C(C)N=C2SC=C(C)N2C1c1cccc(Br)c1 (centres unmarked) [Compound 6f, Ethyl 5-(3-bromophenyl)-3,7-dimethyl-5H-thiazolo[3,2-a]pyrimidine-6-carboxylate] | – | –
45.2 µM | 151 to 152 °C | CCOC(=O)C1=C(C)N=C2SC=C(C)N2C1c1cccc([N+](=O)[O-])c1 (centres unmarked) [Compound 6g, Ethyl 3,7-dimethyl-5-(3-nitrophenyl)-5H-thiazolo[3,2-a]pyrimidine-6-carboxylate] | – | –
> 250 µM | 114 to 115 °C | CCOC(=O)C1=C(C)N=C2SC=C(C)N2C1c1ccc(C)cc1 (centres unmarked) [Compound 6h, Ethyl 3,7-dimethyl-5-(p-tolyl)-5H-thiazolo[3,2-a]pyrimidine-6-carboxylate] | – | tyrosinase inhibitory activity (in words) ([2]; SAR discussion): complete loss of activity
35.7 µM | 111 to 112 °C | CCOC(=O)C1=C(C)N=C2SC=C(C)N2C1c1ccc(OC)cc1 (centres unmarked) [Compound 6i, Ethyl 5-(4-methoxyphenyl)-3,7-dimethyl-5H-thiazolo[3,2-a]pyrimidine-6-carboxylate] | – | –
40.8 µM | 121 to 122 °C | CCOC(=O)C1=C(C)N=C2SC=C(C)N2C1c1ccc(O)c(OC)c1 (centres unmarked) [Compound 6j, Ethyl 5-(4-hydroxy-3-methoxyphenyl)-3,7-dimethyl-5H-thiazolo[3,2-a]pyrimidine-6-carboxylate] | – | –
